ChEMBL document CHEMBL4422622, “Identification of Mineralocorticoid Receptor Modulators with Low Impact on Electrolyte Homeostasis but Maintained Organ Protection” (J Med Chem, 2019)
Converted amounts (≈) assume the structure as drawn.

Experiments:
[1] = Intrinsic clearance in human liver microsomes at 1 uM measured up to 30 mins in presence of NADPH by LC-MS/MS analysis; format: ADME, Microsome; settings: read-out: CLH
Glucocorticoid receptor = target: T1, Glucocorticoid receptor (Homo sapiens, UniProt P04150)
T1 sequence (P04150 whole entry): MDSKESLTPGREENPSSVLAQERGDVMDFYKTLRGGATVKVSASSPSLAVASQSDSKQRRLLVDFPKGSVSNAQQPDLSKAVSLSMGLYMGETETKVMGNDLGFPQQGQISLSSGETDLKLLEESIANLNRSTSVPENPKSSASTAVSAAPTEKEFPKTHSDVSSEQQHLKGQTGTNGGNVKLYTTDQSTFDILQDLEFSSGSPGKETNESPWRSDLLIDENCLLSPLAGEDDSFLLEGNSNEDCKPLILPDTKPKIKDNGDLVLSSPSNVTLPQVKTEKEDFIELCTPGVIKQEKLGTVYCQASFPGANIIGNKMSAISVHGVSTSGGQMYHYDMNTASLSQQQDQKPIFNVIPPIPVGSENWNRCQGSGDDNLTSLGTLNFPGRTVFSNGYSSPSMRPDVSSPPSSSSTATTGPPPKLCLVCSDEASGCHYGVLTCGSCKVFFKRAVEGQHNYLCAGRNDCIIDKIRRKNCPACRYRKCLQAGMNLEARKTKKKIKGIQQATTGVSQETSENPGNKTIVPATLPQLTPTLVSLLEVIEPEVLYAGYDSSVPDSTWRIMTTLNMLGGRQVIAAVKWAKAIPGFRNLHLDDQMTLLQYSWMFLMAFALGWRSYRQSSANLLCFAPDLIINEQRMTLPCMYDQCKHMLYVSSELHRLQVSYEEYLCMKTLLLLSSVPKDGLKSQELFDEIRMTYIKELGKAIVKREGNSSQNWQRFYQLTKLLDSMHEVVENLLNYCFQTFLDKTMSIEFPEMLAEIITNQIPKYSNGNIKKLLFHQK
Description: Binding affinity to recombinant human GR LBD by fluormone GS red-fluorescence polarization assay

[2] = Octanol-water partitioning co-efficient, log D of the compound at pH 7.4 by LC/MS/MS analysis; format: physicochemical
[3] = target: T2, Mineralocorticoid receptor (Homo sapiens, UniProt P08235)
T2 sequence (P08235 whole entry): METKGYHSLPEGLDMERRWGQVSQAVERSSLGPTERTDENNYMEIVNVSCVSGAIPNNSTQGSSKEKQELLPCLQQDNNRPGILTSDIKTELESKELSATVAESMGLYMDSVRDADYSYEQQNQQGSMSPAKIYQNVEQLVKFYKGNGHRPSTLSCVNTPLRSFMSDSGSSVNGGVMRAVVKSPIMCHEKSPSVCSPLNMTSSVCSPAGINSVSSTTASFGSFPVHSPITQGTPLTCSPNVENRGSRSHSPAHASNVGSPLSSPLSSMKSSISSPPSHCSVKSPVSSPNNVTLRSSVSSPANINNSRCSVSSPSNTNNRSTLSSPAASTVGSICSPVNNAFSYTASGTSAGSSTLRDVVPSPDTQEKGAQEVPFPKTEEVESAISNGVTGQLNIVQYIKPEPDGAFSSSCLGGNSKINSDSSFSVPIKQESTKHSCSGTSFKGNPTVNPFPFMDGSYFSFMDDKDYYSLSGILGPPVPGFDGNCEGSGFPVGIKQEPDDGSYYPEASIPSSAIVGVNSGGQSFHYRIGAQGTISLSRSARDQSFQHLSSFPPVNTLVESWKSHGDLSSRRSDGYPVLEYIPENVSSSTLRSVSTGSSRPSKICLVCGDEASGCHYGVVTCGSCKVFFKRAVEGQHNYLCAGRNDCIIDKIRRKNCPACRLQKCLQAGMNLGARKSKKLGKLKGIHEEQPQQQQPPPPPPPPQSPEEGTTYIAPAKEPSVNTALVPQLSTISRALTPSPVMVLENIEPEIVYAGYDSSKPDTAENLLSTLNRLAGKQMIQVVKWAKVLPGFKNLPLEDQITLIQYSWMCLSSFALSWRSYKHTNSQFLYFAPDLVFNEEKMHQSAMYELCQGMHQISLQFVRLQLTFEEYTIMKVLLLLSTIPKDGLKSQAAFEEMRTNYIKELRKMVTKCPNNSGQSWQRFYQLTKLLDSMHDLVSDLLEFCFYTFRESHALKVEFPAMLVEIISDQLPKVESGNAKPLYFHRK
Description: Antagonist activity at gal4-fused human mineralocorticoid receptor LBD expressed in UAS-MR-bla HEK293 cells by luciferase reporter gene assay

[4] = target: T2, Mineralocorticoid receptor; remark: listed apart in the source
Description: Displacement of [3H]-aldosterone to human mineralocorticoid receptor LBD by radiometric binding assay

[5] = Kinetic solubility of compound at pH 7.4 after 24 hrs by shake-flask assay; format: physicochemical; settings: buffer, read-out: -log(solubility) (converted)
Progesterone receptor = target: T3, Progesterone receptor (Homo sapiens, UniProt P06401); experiment: Binding affinity to recombinant human progesterone receptor LBD by fluormone PL red-fluorescence polarization assay
T3 sequence (P06401 whole entry): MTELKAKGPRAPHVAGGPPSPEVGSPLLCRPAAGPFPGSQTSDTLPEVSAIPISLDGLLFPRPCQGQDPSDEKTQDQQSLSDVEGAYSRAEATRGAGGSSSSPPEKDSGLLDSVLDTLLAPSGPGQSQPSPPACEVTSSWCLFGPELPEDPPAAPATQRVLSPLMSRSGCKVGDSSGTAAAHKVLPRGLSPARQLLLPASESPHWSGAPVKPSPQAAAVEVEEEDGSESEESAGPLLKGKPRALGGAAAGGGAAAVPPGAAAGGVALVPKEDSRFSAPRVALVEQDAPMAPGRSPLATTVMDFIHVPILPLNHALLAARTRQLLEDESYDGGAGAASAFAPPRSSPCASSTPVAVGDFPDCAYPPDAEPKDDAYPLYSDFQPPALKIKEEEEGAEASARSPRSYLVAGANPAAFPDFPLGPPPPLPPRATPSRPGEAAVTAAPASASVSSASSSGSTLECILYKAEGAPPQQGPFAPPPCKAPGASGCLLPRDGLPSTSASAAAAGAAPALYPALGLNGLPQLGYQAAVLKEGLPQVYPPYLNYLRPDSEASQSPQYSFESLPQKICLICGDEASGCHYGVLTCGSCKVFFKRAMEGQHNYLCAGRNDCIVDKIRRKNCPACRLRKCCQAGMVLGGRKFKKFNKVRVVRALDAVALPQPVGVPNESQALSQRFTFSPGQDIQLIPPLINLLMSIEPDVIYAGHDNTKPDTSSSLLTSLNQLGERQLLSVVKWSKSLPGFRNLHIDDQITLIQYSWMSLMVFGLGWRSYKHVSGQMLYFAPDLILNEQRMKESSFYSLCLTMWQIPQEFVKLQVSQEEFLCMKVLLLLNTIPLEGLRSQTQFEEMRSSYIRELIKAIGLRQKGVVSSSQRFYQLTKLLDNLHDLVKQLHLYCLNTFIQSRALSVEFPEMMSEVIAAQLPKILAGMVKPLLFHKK

[6] = Oral bioavailability in Han Wistar rat at 2.1 mg/kg by LC-MS/MS analysis; format: ADME, organism-based; settings: in vivo
[7] = Clearance in Han Wistar rat at 1.2 mg/kg, iv by LC-MS/MS analysis; format: ADME, organism-based; settings: in vivo
[8] = Intrinsic clearance in Han Wistar rat hepatocytes assessed per million cells at 1 uM after 4 hrs by LC/MS/MS analysis; format: ADME, cell-based, Hepatocyte; settings: read-out: CLH
[9] = Fraction unbound in Han Wistar rat plasma at 1 uM after 4 hrs by LC/MS/MS analysis; format: ADME, cell-free
Rattus norvegicus = experiment: Induction of hyperkalemia in Sprague-Dawley rat fed on low salt diet for 72 hrs assessed as increase in Na+/K+ ratio in urine administered via oral gavage after 8 hrs; format: organism-based; settings: in vivo
[10] = Volume of distribution at steady state in Han Wistar rat at 1.2 mg/kg, iv by LC-MS/MS analysis; format: ADME, organism-based; settings: in vivo, read-out: Vdss
[11] = Terminal half life in Han Wistar rat at 1.2 mg/kg, iv by LC-MS/MS analysis; format: ADME, organism-based; settings: in vivo, read-out: beta t1/2 (converted)

SMILES	microsomal CLint at 1 µM [1] [µL/min/mg]	Ki (Glucocorticoid receptor) [µM]	logD [2]	IC50 [3] [µM]	Ki [4] [µM]	solubility kinetic at 24 h [5] [µM]	Ki (Progesterone receptor) [µM]	bioavailability [6] [%]	clearance [7] [mL/min/kg]	hepatocyte CLint at 1 µM [8] [µL/min/1e6 cells]	fraction unbound at 4 h, 1 µM [9]	Vd [10] [L/kg]	half-life [11] [h]	Activity (Rattus norvegicus)
CC(C)C[C@H]1COc2cc(F)ccc2N1C(=O)c1ccc2c(c1)NC(=O)CC2	> 300	12.6	3.6	2.51	1	79.4 (≈ 30.4 µg/mL)	> 50.1	–	–	–	–	–	–	–
C[C@H]1COc2cccnc2N1C(=O)c1ccc2c(c1)NC(=O)CO2	6	> 15.8	1.3	> 10	1.26	1000 (≈ 325 µg/mL)	> 50.1	–	–	–	–	–	–	–
CC(C)C[C@H]1COc2cc(F)ccc2N1C(=O)c1ccc2c(c1)NC(=O)CO2	> 300	0.0501	3.8	0.0631	0.002	39.8 (≈ 15.3 µg/mL)	2.51	–	–	–	–	–	–	–
COC(=O)[C@@H]1CC2=CC(=O)CC[C@]2(C)[C@@]23O[C@@H]2C[C@@]2(C)[C@@H](CC[C@@]24CCC(=O)O4)[C@H]13 [EPLERENONE]	9	–	0.8	–	–	1000 (≈ 414 µg/mL)	–	16	17	5	0.76	1	1.3	Toxic
C[C@@H]1COc2cc(F)ccc2N1C(=O)c1ccc2c(c1)NC(=O)CO2	11	–	2.7	–	–	–	> 50.1	–	–	–	–	–	–	–
CC1CCc2ccccc2N1S(=O)(=O)c1ccc2c(c1)NC(=O)CO2 (racemic)	> 300	–	3.3	5.01	2	20 (≈ 7.15 µg/mL)	–	–	–	–	–	–	–	–
CC1CCc2ccccc2N1C(=O)c1ccc2c(c1)NC(=O)CO2 (racemic)	128	–	2.7	1.58	0.794	50.1 (≈ 16.2 µg/mL)	–	–	–	–	–	–	–	–
O=C1COc2ccc(C(=O)N3CCCc4ccccc43)cc2N1	27	–	2.4	2	0.631	50.1 (≈ 15.5 µg/mL)	–	–	–	–	–	–	–	–

More lines, main results first:

microsomal CLint at 1 µM [1] [µL/min/mg]	Ki (Glucocorticoid receptor) [µM]	logD [2]	IC50 [3] [µM]	Ki [4] [µM]	solubility kinetic at 24 h [5] [µM]	Ki (Progesterone receptor) [µM]	bioavailability [6] [%]	clearance [7] [mL/min/kg]	hepatocyte CLint at 1 µM [8] [µL/min/1e6 cells]	fraction unbound at 4 h, 1 µM [9]	Vd [10] [L/kg]	half-life [11] [h]	SMILES	Activity (Rattus norvegicus)
190	2	2.9	0.794	0.126	126 (≈ 42.8 µg/mL)	> 50.1	–	–	–	–	–	–	C[C@H]1CCc2cc(F)ccc2N1C(=O)c1ccc2c(c1)NC(=O)CO2	–
40	> 15.8	3.7	> 10	> 10	2 (≈ 0.744 µg/mL)	> 50.1	–	–	–	–	–	–	O=C1COc2ccc(C(=O)N3c4ccc(Cl)cc4C[C@@H]3CCO)cc2N1	–
12	> 15.8	0.2	> 10	> 10	50.1 (≈ 18.6 µg/mL)	> 50.1	–	–	–	–	–	–	NCC[C@H]1COc2cc(F)ccc2N1C(=O)c1ccc2c(c1)NC(=O)CO2	–
15	1.26	1.8	0.501	0.2	1000 (≈ 372 µg/mL)	25.1	–	–	–	–	–	–	O=C1COc2ccc(C(=O)N3c4ccc(F)cc4OC[C@@H]3CCO)cc2N1	–
< 3	5.01	-0.5	> 10	0.158	1000 (≈ 403 µg/mL)	> 50.1	–	–	–	–	–	–	O=C(O)C[C@H]1COc2cc(Cl)ccc2N1C(=O)c1ccc2c(c1)NC(=O)CO2	–
